Results as given in patent EP2242752B1, “[…] IMIDAZOLES AS HEPATITIS C VIRUS INHIBITORS” (Bristol-Myers Squibb Company, priority 2008, dated 2009).

Test system: HCV 1b genotype
Assay: HCV Replicon assay (HCV 16-377-neo replicon cells)
Format: cell-based
Conditions: Hepatitis C virus; HCV 1b genotype replicon cells; read-out: EC50 ranges against HCV 1b
How it was run: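 Inhibition measured in HCV 16-377-neo replicon cells, alongside replicon cells carrying the NS5A Y2065H resistance mutation.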

Row | Compound | EC50 [nM]
1 | COC(=O)N[C@H](C(=O)N1CCC[C@H]1c1nc(-c2ccc(-c3ccc(-c4[nH]c([C@@H]5CCCN5C(=O)[C@@H](NC(=O)OC)C(C)C)nc4CC4OCCCO4)cc3)cc2)c[nH]1)C(C)C [Example J14, methyl ((1S)-1-(((2S)-2-(4-(1,3-dioxan-2-ylmethyl)-5-(4'-(2-((2S)-1-((2S)-2-((methoxycarbonyl)amino)-3-methylbutanoyl)-2-pyrrolidinyl)-1H-imidazol-4-yl)-4-biphenylyl)-1H-imidazol-2-yl)-1-pyrrolidinyl)carbonyl)-2-methylpropyl)carba mate] | 0.001 to 0.999
2 | CCN(CC)[C@@H](C(=O)N1CC(F)(F)C[C@H]1c1nc(-c2ccc(-c3ccc(-c4c[nH]c([C@@H]5CCCN5C(=O)[C@@H](c5ccccc5)N(CC)CC)n4)c(F)c3)cc2)c[nH]1)c1ccccc1 [Example J14e.1, (1R)-2-((2S)-2-(4-(4'-(2-((2S)-1-((2R)-2-(diethylamino)-2-phenylacetyl)-4,4-difluoro-2-pyrrolidinyl)-1H-imidazol-4-yl)-3-fluoro-4-biphenylyl)-1H-imidazol-2-yl)-1-pyrrolidinyl)-N,N-diethyl-2-oxo-1-phenylethanamine] | 0.001 to 0.999
3 | COC(=O)NCC(=O)N1[C@@H]2C[C@@H]2C[C@H]1c1ncc(-c2ccc(-c3ccc(-c4cnc([C@@H]5C[C@H]6C[C@H]6N5C(=O)CNC(=O)OC)[nH]4)cc3)cc2)[nH]1 (mixture of isomers) [Example M134, methyl (2-((1R,3S,SR)-3-(4-(4'-(2-((1R,3S,SR)-2-(((methoxycarbonyl)amino)acetyl)-2-azabicyclo[3.1.0]hex-3-yl)-1H-imidazol-4-yl)-4-biphenylyl)-1H-imidazol-2-yl)-2-azabicyclo[3.1.0]hex-2-yl)-2-oxoethyl) carbamate] | 1 to 99
4 | COC(=O)NC(C)(C)C(=O)N1[C@@H](C)CC[C@H]1c1ncc(-c2ccc(-c3ccc(-c4cnc([C@@H]5CC[C@H](C)N5C(=O)C(C)(C)NC(=O)OC)[nH]4)cc3)cc2)[nH]1 [Example M156, methyl (2-((2S,5S)-2-(4-(4'-(2-((2S,5S)-1-(2-((methoxycarbonyl)amino)-2-methylpropanoyl)-5-methyl-2-pyrrolidinyl)-1H-imidazol-4-yl)-4-biphenylyl)-1H-imidazol-2-yl)-5-methyl-1-pyrrolidinyl)-1,1-dimethy 1-2-oxoethyl)carbamate] | 1 to 99
5 | COC(=O)N[C@@H](C)C(=O)N1[C@@H](C)CC[C@H]1c1nc(-c2ccc(-c3ccc(-c4c[nH]c([C@@H]5CC[C@H](C)N5C(=O)[C@H](C)NC(=O)OC)n4)cc3)cc2)c[nH]1 [Example M157, methyl ((1S)-2-((2S,5S)-2-(4-(4'-(2-((2S,5S)-1-(N-(methoxycarbonyl)-L-alanyl)-5-methyl-2-pyrrolidinyl)-1H-imidazol-4-yl)-4-biphenylyl)-1H-imidazol-2-yl)-5-methyl-1-pyrrolidinyl)-1-methyl-2-oxoethyl)carbamate] | 0.001 to 0.999
